The values that follow come from patent US8691865B2 (AbbVie Inc., priority 2008, dated 2014).

Broadly, the IC50 is the concentration that inhibits the measured activity by half.

SMILES strings stand for the structures.

For the first experiment, the target named is human Cav2.2 (Homo sapiens, UniProt Q00975). Put plainly: Assessment of calcium channel activity using FLIPR (Ca2+ influx in IMR32 cells). It is filed as cell-based.
human Cav2.2, sequence (Q00975 whole entry): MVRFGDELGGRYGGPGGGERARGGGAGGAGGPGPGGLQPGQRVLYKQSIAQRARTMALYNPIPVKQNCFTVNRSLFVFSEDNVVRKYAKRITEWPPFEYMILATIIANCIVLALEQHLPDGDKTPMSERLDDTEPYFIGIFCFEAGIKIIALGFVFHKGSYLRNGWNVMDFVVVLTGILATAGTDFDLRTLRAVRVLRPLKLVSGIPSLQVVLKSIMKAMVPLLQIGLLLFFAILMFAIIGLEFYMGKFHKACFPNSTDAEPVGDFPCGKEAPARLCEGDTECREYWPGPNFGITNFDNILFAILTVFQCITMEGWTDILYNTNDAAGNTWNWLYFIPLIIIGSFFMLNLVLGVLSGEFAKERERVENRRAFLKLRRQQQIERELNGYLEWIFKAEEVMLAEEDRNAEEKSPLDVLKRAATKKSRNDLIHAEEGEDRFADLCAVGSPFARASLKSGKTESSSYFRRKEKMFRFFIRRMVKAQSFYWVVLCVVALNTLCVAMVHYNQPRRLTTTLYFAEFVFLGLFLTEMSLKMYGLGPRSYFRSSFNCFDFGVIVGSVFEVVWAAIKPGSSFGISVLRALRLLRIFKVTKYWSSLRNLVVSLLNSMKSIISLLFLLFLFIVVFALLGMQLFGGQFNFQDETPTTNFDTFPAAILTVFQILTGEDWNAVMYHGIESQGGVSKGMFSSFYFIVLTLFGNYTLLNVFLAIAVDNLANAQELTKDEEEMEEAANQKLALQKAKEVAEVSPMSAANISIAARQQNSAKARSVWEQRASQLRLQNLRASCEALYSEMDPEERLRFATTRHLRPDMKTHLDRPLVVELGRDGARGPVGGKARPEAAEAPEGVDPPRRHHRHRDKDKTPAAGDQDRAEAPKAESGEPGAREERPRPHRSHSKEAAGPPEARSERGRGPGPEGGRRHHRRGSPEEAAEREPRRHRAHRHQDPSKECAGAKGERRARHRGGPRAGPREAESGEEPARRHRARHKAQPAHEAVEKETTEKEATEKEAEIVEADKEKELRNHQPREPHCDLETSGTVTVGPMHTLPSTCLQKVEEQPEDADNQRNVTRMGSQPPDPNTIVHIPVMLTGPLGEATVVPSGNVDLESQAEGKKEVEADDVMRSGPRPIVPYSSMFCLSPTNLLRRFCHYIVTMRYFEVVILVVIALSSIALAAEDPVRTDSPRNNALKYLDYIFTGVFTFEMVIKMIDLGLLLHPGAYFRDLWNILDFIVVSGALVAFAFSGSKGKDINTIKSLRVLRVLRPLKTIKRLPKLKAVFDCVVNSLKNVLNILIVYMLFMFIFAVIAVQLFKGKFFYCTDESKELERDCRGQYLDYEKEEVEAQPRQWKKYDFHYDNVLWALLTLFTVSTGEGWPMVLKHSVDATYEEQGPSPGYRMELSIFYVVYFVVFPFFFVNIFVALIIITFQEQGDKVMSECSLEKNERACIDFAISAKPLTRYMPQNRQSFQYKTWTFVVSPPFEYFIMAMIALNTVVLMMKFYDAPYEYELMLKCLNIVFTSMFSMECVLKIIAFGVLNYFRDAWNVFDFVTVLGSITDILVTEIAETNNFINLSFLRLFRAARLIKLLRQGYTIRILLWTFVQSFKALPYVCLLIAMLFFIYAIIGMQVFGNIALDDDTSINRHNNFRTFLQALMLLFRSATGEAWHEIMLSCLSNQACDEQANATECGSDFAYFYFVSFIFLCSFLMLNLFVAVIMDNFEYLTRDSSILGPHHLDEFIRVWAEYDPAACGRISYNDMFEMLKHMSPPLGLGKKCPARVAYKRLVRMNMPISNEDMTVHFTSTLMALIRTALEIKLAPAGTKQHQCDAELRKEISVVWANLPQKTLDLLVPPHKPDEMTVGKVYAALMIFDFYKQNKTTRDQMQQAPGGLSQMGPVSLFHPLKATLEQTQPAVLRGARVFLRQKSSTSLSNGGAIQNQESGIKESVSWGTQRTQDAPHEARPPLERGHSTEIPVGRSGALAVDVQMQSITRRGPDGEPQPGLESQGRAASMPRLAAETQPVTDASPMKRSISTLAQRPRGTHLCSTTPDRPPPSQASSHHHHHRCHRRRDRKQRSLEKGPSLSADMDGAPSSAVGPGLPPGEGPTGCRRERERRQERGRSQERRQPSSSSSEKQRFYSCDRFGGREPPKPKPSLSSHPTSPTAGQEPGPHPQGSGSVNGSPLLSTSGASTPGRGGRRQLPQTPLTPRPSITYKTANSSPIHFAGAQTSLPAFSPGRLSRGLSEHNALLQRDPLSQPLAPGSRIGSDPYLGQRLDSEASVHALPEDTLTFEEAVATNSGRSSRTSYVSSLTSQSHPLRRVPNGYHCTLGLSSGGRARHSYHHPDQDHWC
human Cav2.2, sequence (P54289 25-956 partner limits assumed): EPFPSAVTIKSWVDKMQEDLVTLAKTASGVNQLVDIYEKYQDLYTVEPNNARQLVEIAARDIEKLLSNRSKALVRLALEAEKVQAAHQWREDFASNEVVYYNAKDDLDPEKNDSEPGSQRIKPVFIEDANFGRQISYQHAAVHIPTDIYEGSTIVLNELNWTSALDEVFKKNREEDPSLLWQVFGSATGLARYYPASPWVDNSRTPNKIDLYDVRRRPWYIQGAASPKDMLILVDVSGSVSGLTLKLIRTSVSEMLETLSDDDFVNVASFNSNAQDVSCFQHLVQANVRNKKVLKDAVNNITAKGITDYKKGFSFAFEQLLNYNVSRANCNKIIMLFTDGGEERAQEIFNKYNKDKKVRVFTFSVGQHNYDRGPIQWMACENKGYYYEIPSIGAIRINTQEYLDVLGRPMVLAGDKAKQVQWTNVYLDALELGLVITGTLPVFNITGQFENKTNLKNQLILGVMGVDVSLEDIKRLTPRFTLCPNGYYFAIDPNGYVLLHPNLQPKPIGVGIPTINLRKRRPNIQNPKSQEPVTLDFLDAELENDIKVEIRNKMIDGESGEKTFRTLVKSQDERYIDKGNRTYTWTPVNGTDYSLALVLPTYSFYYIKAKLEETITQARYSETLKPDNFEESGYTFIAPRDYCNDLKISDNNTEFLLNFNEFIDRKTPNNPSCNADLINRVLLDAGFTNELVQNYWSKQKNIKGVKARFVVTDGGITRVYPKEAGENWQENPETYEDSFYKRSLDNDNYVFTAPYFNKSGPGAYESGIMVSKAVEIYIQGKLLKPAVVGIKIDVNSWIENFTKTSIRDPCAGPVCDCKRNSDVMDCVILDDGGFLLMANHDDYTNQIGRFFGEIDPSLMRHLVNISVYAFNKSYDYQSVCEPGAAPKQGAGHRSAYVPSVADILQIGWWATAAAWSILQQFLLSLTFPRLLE
human Cav2.2, sequence (P54289 957-1103 partner limits assumed): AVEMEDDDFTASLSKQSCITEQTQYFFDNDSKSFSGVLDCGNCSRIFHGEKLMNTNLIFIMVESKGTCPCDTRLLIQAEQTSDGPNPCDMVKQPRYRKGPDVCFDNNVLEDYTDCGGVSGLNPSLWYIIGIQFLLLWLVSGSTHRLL
human Cav2.2, sequence (P54284 whole entry partner): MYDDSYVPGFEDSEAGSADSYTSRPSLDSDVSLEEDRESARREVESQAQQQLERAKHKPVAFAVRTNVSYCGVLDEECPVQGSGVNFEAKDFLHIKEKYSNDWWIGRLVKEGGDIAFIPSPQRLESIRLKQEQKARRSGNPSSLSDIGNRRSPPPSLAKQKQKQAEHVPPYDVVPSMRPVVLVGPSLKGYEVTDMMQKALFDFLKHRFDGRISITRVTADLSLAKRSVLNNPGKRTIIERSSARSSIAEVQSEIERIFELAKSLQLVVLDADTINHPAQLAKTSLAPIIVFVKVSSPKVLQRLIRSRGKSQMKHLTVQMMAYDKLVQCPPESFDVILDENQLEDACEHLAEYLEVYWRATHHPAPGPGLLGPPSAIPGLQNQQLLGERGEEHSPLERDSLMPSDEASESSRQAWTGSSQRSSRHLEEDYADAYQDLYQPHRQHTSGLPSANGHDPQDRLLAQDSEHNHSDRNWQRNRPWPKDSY
Conditions: not given
An outline of the steps:
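Human neuroblastoma IMR32 cells were seeded at 1−1.2×10^5 cells/well and cultured 48 h at 37 °C before FLIPR calcium influx measurement. Percent inhibition at each concentration was calculated against the no-inhibitor signal, and IC50 came from sigmoidal dose-response fits.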
Take `CN[C@@H](CC(C)C)C(=O)N[C@@H]1CC[C@H]2CN(S(=O)(=O)c3cccc(C(F)(F)F)c3)C[C@H]21` [Example 182, N^2-methyl-N^1-((3aS,4R,6aR)-2-{[3-(trifluoromethyl)phenyl]sulfonyl}octahydrocyclopenta[c]pyrrol-4-yl)-L-leucinamide]: the 50% inhibitory concentration (IC50) came to 1.45 µM.

With `O=C(N[C@H]1CC[C@@H]2CN(c3ccc(C(F)(F)F)cn3)C[C@@H]21)c1cc2ccccc2[nH]1` [Example 568, N-{(3aR,4S,6aS)-2-[5-(trifluoromethyl)pyridin-2-yl]octahydrocyclopenta[c]pyrrol-4-yl}-1H-indole-2-carboxamide], the IC50 is 2.1 µM.

Turning to `CN[C@@H](CC(C)C)C(=O)N[C@H]1CC[C@@H]2CN(c3cnccc3C(F)(F)F)C[C@@H]21` [Example 765, N^2-methyl-N-{(3aR,4S,6aS)-2-[4-(trifluoromethyl)pyridin-3-yl]octahydrocyclopenta[c]pyrrol-4-yl}-L-leucinamide], the IC50 amounted to 2.59 µM.

For `FC(F)(F)c1cccc(N2C[C@H]3CC[C@H](NCc4[nH]c5ccccc5c4Cl)[C@H]3C2)n1` [Example 679, (3aR,4S,6aS)-N-[(3-chloro-1H-indol-2-yl)methyl]-2-[6-(trifluoromethyl)pyridin-2-yl]octahydrocyclopenta[c]pyrrol-4-amine], the IC50 turned out to be 1.62 µM.

On to `N#Cc1cccc(N2C[C@H]3CC[C@H](NC(=O)[C@@H]4C[C@@H](F)CN4)[C@H]3C2)c1` [Example 632, (4R)-N-[(3aR,4S,6aS)-2-(3-cyanophenyl)octahydrocyclopenta[c]pyrrol-4-yl]-4-fluoro-L-prolinamide], for which the IC50 stood at 18.9 µM.

With `Fc1ccc2[nH]cc(CN[C@H]3CC[C@@H]4CN(c5cccc(C(F)(F)F)n5)C[C@@H]43)c2c1` [Example 678, (3aR,4S,6aS)-N-[(5-fluoro-1H-indol-3-yl)methyl]-2-[6-(trifluoromethyl)pyridin-2-yl]octahydrocyclopenta[c]pyrrol-4-amine], the IC50 is 0.69 µM.

Regarding `CC(C)C(C(=O)N[C@@H]1CC[C@H]2CN(Cc3ccccc3)C[C@H]21)C(C)C` [Example 235, N-[(3aS,4R,6aR)-2-benzyloctahydrocyclopenta[c]pyrrol-4-yl]-2-isopropyl-3-methylbutanamide], the IC50 stood at 11 µM.

As to `CN[C@@H](Cc1ccccc1)C(=O)N[C@H]1CC[C@@H]2CN(S(=O)(=O)c3ccc(C(F)(F)F)cc3Cl)C[C@@H]21` [Example 432], the half-maximal inhibitory concentration (IC50) turned out to be 1.66 µM.

With `CN[C@@H](CC(C)C)C(=O)N[C@H]1CC[C@@H]2CN(c3cccc(SC(F)(F)F)c3)C[C@@H]21` [Example 712, N^2-methyl-N-[(3aR,4S,6aS)-2-{3-[(trifluoromethyl)thio]phenyl]octahydrocyclopenta[c]pyrrol-4-yl}-L-leucinamide], the IC50 is 1.01 µM.

Still in this experiment, the particulars now being: read-out: IC50 (μM) or percent inhibition (* indicates 3 minute incubation, otherwise 60 minute); IC50; 60 minute pre-incubation with compound; IMR32 cells, 80 mM KCl depolarization.
Consider `O=C(N[C@@H]1CC[C@H]2CN(Cc3ccccc3)C[C@H]21)C(c1ccccc1)C1CCCC1` (relative stereo) [Example 8, N-[(3aS*,4R*,6aR*)-2-benzyloctahydrocyclopenta[c]pyrrol-4-yl]-2-cyclopentyl-2-phenylacetamide], for which the IC50 stood at 1.07 µM.

Consider `CC(C)N[C@@H](CC1CCCCC1)C(=O)N[C@H]1CC[C@@H]2CN(S(=O)(=O)c3ccc(C(F)(F)F)cc3)C[C@@H]21` [Example 485, 3-cyclohexyl-N^2-isopropyl-N^1-((3aR,4S,6aS)-2-{[4-(trifluoromethyl)phenyl]sulfonyl}octahydrocyclopenta[c]pyrrol-4-yl)-L-alaninamide], for which the IC50 stood at 1.49 µM.

For `CC(C)C[C@@H](C(=O)N[C@@H]1CC[C@H]2CN(Cc3cccc(C(F)(F)F)c3)C[C@H]21)N(C)C(=O)C(C)(C)C` [Example 176, N^2-(2,2-dimethylpropanoyl)-N^2-methyl-N^1-{(3aS,4R,6aR)-2-[3-(trifluoromethyl)benzyl]octahydrocyclopenta[c]pyrrol-4-yl}-L-leucinamide], the 50% inhibitory concentration (IC50) was 0.86 µM.
